Assay results reported in patent publication US10336701B2, “Pyridin-2-one derivatives of formula (II) useful as EP3 receptor antagonists” (Janssen Pharmaceutica NV, priority 2017, dated 2019).

Legend:
EP3 receptor [1] = molecular target: T1, EP3 receptor (Homo sapiens, UniProt P43115); assay: CHO cell cAMP assay (forskolin and sulprostone stimulated, HTRF); type: cell-based; details: CHO cells; sulprostone 700 nM (EC80) and FSK 2 μM (EC70), 37° C. for 30 minutes; read-out: CHO_cAMP IC50
T1 construct: purchased Millipore HTS092M
T1 sequence (P43115 1-390): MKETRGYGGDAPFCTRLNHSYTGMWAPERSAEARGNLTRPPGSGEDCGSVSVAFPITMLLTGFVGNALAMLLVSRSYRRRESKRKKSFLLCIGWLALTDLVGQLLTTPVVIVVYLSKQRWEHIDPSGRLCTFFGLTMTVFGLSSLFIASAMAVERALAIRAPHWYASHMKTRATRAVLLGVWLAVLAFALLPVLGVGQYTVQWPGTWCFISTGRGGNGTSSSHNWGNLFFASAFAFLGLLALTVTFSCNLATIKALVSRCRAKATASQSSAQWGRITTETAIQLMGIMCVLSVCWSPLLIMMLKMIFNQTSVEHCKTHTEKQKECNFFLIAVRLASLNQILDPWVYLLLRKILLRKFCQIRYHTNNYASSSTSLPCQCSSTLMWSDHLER
Method: For detection, a homogeneous competitive immunoassay (Time Resolved Fluorescence Energy Transfer (hTR-FRET)) was used.
Cells (6K cells per well) were plated in Poly-D-Lysine coated plates the day before the assay was to be run and were incubated at 37° C. […] At the start of the assay the buffer was removed from the cells and replaced with buffer containing test compound(s). Sulprostone at an EC80 dose (700 nM) and FSK at an EC70 dose (2 μM) were added to initiate the reaction (37° C. for 30 minutes).
FSK increases cAMP production and sulprostone decreases cAMP production produced by FSK. In this assay, EP3 antagonists will increase the cAMP to the level of cAMP generated by FSK alone.
Approximately one hour later the plates were read on an Envision (Perkin Elmer) in HTRF mode.
NSP, NSN, NSsample were converted to nM cAMP using the following equation: […]
IC50 values were determined from a […] (Hill equation) of a single 11-point compound dosing.

EP3 receptor [2] = molecular target: T1, EP3 receptor; assay: [3H]-PGE2 binding assay (EP3 competition binding); details: read-out: [3H]-PGE2 Binding Ki
Outline: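 Scintillation-bead competition binding with EP3 membranes (2 μg/well), 2 nM [3H]-PGE2, 0.1% DMSO, in 50 mM Tris, 10 mM MgCl2, 1 mM EDTA, pH 7.4.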

IC50 (EP3 receptor [1]) [nM] | Ki (EP3 receptor [2]) [nM] | Structure (SMILES)
900 | 740 | CC1(c2ccc(-c3ccc4ccccc4c3)[nH]c2=O)CNS(=O)(=O)N1 (centres unmarked) [compound 282, 3-(3-methyl-1,1-dioxido-1,2,5-thiadiazolidin-3-yl)-6-(naphthalen-2-yl)pyridin-2(1H)-one]
3960 | 398 | CC(C)C(C(=O)NCCN(C)C)c1ccc(-c2ccc3cc(F)ccc3c2)[nH]c1=O (centres unmarked) [compound 242, N-(2-(dimethylamino)ethyl)-2-(6-(6-fluoronaphthalen-2-yl)-2-oxo-1,2-dihydropyridin-3-yl)-3-methylbutanamide]
17 | 6 | CC(C)C(N/C(N)=N/C#N)c1ccc(-c2ccc3cccc(F)c3c2)[nH]c1=O (centres unmarked) [compound 268, (E)-2-cyano-1-(1-(6-(8-fluoronaphthalen-2-yl)-2-oxo-1,2-dihydropyridin-3-yl)-2-methylpropyl)quanidine]
103 | 1 | CCn1ncc2c(F)cc(-c3ccc(C4(F)CCCN(S(=O)(=O)C(C)C)C4)c(=O)[nH]3)cc21 (centres unmarked) [compound 296, 6-(1-ethyl-4-fluoro-1H-indazol-6-yl)-3-(3-fluoro-1-(isopropylsulfonyl)piperidin-3-yl)pyridin-2(1H)-one]
207 | 14 | CO/N=C1\NCC(c2cc(C)c(-c3ccc4cccc(F)c4c3)[nH]c2=O)(C(C)C)N1 (centres unmarked) [compound 293, (E)-6-(8-fluoronaphthalen-2-yl)-3-(4-isopropyl-2-(methoxyimino)imidazolidin-4-yl)-5-methylpyridin-2(1H)-one]
680 | 270 | CC(C)/C(=C1\OC(=O)NC1=O)c1ccc(-c2ccc3cccc(F)c3c2)[nH]c1=O [compound 304, (E)-5-(1-(6-(8-fluoronaphthalen-2-yl)-2-oxo-1,2-dihydropyridin-3-yl)-2-methylpropylidene)oxazolidine-2,4-dione]
656 | 180 | CC1(c2ccc(-c3ccc4ccccc4c3)[nH]c2=O)CN/C(=N\O)N1 (centres unmarked) [compound 288, 3-[(2E)-2-(hydroxyimino)-4-methylimidazolidin-4-yl]-6-(naphthalen-2-yl)-1,2-dihydropyridin-2-one]
1140 | 49 | CC(C)C(F)(C(N)=O)c1ccc(-c2ccc3ccccc3c2)[nH]c1=O (centres unmarked) [compound 217, 2-fluoro-3-methyl-2-(6-(naphthalen-2-yl)-2-oxo-1,2-dihydropyridin-3-yl)butanamide]
24 | 20 | CC(C)C(CC(=O)Nc1ncc[nH]1)c1ccc(-c2ccc3cccc(F)c3c2)[nH]c1=O (centres unmarked) [compound 261, 3-(6-(8-fluoronaphthalen-2-yl)-2-oxo-1,2-dihydropyridin-3-yl)-N-(1H-imidazol-2-yl)-4-methylpentanamide]
59 | 12 | CC(C)C(Cc1ccc(-c2ccc3cccc(F)c3c2)[nH]c1=O)C(N)=O (centres unmarked) [compound 253, 2-((6-(8-fluoronaphthalen-2-yl)-2-oxo-1,2-dihydropyridin-3-yl)methyl)-3-methylbutanamide]
382 | 65 | CCn1ncc2c(C)cc(-c3ccc(C(CC4OC(=O)NC4=O)C(C)C)c(=O)[nH]3)cc21 (centres unmarked) [compound 126, 5-(2-(6-(1-ethyl-4-methyl-1H-indazol-6-yl)-2-oxo-1,2-dihydropyridin-3-yl)-3-methylbutyl)oxazolidine-2,4-dione]
499 | 180 | O=C1NC(=O)C(Cc2ccc(-c3ccc4cccc(F)c4c3)[nH]c2=O)O1 (centres unmarked) [compound 252, 5-((6-(8-fluoronaphthalen-2-yl)-2-oxo-1,2-dihydropyridin-3-yl)methyl)oxazolidine-2,4-dione]
10800 | 1290 | CC(C)C(F)(C(=O)NS(C)(=O)=O)c1ccc(-c2ccc3ccccc3c2)[nH]c1=O (centres unmarked) [compound 224, 2-fluoro-3-methyl-N-(methylsulfonyl)-2-(6-(naphthalen-2-yl)-2-oxo-1,2-dihydropyridin-3-yl)butanamide]
6 | 2 | CC(C)C1(c2ccc(-c3ccc4cccc(F)c4c3)[nH]c2=O)N=C(NC#N)NC1=O (centres unmarked) [compound 236, N-(4-(6-(8-fluoronaphthalen-2-yl)-2-oxo-1,2-dihydropyridin-3-yl)-4-isopropyl-5-oxo-4,5-dihydro-1H-imidazol-2-yl)cyanamide]
171 | 110 | CC(C)C(C(=O)NS(=O)(=O)c1cc(Cl)c(Cl)s1)c1ccc(-c2ccc3cccc(F)c3c2)[nH]c1=O (centres unmarked) [compound 175, N-(4,5-dichlorothiophen-2-ylsulfonyl)-2-(6-(8-fluoronaphthalen-2-yl)-2-oxo-1,2-dihydropyridin-3-yl)-3-methylbutanamide]
8680 | 157 | CC1(c2ccc(-c3ccc4ccccc4c3)[nH]c2=O)CNC(N)=N1 (centres unmarked) [compound 287, 3-(2-amino-4-methyl-4,5-dihydro-1H-imidazol-4-yl)-6-(naphthalen-2-yl)pyridin-2(1H)-one]
17000 | > 10000 | CC(C)C(C(=O)NCCN(C)C)c1ccc(-c2ccc3ncsc3c2)[nH]c1=O (centres unmarked) [compound 246, 2-(6-(benzo[d]thiazol-6-yl)-2-oxo-1,2-dihydropyridin-3-yl)-N-(2-(dimethylamino)ethyl)-3-methylbutanamide]

Further lines, the compound ahead of its results:

Structure (SMILES) | IC50 (EP3 receptor [1]) [nM] | Ki (EP3 receptor [2]) [nM]
CCN1CCOc2ccc(-c3ccc(C(C(C)C)N4CCS(=O)(=O)CC4)c(=O)[nH]3)cc21 (centres unmarked) [Compound #169, 3-(1-(1,1-dioxidothiomorpholino)-2-methylpropyl)-6-(4-ethyl-3,4-dihydro-2H-benzo[b][1,4]oxazin-6-yl)pyridin-2(1H)-one] | 476 | 51
CCn1ncc2c(F)cc(-c3ccc(C(CC)(CC)c4ncc[nH]4)c(=O)[nH]3)cc21 [compound 31, 6-(1-ethyl-4-fluoro-indazol-6-yl)-3-[1-ethyl-1-(1H-imidazol-2-yl)propyl]-1H-pyridin-2-one] | 482 | 37
Cc1cc(C(CC2OC(=O)NC2=O)C(C)C)c(=O)[nH]c1-c1ccc2cccc(F)c2c1 (centres unmarked) [Compound #112] | 212 | 57
CC(C)C(/C=C1\OC(=O)NC1=O)c1ccc(-c2ccc3c(c2)N(C)CCO3)[nH]c1=O (centres unmarked) [compound 108, (Z)-5-(3-methyl-2-(6-(4-methyl-3,4-dihydro-2H-benzo[b][1,4]oxazin-6-yl)-2-oxo-1,2-dihydropyridin-3-yl)butylidene)oxazolidine-2,4-dione] | 602 | 171
O=C1NC(=O)C(CC2(c3ccc(-c4ccc5cccc(F)c5c4)[nH]c3=O)CCCC2)O1 (centres unmarked) [compound 7, 5-((1-(6-(8-fluoronaphthalen-2-yl)-2-oxo-1,2-dihydropyridin-3-yl)cyclopentyl)methyl) oxazolidine-2,4-dione] | 149 | 39
O=C1NC(=O)/C(=C/C(c2ccc(-c3ccc4cccc(F)c4c3)[nH]c2=O)C2CC2)O1 (centres unmarked) [compound 103, (Z)-5-(2-cyclopropyl-2-(6-(8-fluoronaphthalen-2-yl)-2-oxo-1,2-dihydropyridin-3-yl)ethylidene)oxazolidine-2,4-dione] | 33 | 22
CCN1CCOc2c(F)cc(-c3ccc(C(CN4CCS(=O)(=O)CC4)C(C)C)c(=O)[nH]3)cc21 (centres unmarked) [Compound #129, 4-{2-[6-(4-ethyl-8-fluoro-2,3-dihydro-1,4-benzoxazin-6-yl)-2-oxo-1H-pyridin-3-yl]-3-methylbutyl}-1,4-thiomorpholine-1,1-dione] | 149 | 6
CCn1ncc2c(F)cc(-c3ccc(C(CC)(CC)c4nnn[nH]4)c(=O)[nH]3)cc21 [Compound #3, 3-(3-(1H-tetrazol-5-yl)pentan-3-yl)-6-(1-ethyl-4-fluoro-1H-indazol-6-yl)pyridin-2(1H)-one] | 349 | 17
CC(C)C(/C=C1\OC(=O)NC1=O)c1ccc(-c2cc(Cl)c3c(c2)ncn3C)[nH]c1=O (centres unmarked) [compound 97, (Z)-5-(2-(6-(7-chloro-1-methyl-1H-benzo[d]imidazol-5-yl)-2-oxo-1,2-dihydropyridin-3-yl)-3-methylbutylidene)oxazolidine-2,4-dione] | 666 | 179
CCn1ncc2c(F)cc(-c3ccc(C(CC)(CC)c4noc(=O)[nH]4)c(=O)[nH]3)cc21 [Compound #4] | 1800 | 88
CCn1cc2c(C)cc(-c3ccc(C(/C=C4\OC(=O)NC4=O)C(C)C)c(=O)[nH]3)cc2n1 (centres unmarked) [compound 98, (Z)-5-(2-(6-(2-ethyl-4-methyl-2H-indazol-6-yl)-2-oxo-1,2-dihydropyridin-3-yl)-3-methylbutylidene)oxazolidine-2,4-dione] | > 20000 | > 10000
